The text below walks through data of US7879878B2, “Quinolone derivative or salt thereof” (Astellas Pharma Inc., priority 2003, dated 2011).

Assay [1] has as its system Human platelet aggregation. Description: Test for assaying human platelet aggregation-inhibiting activity (ADP-induced aggregation in platelet-enriched plasma). The conditions noted are these: compound at 10 μM final concentration; human PRP; aggregation induced by ADP; area-under-the curve of platelet aggregation as indicator; read-out: % inhibition (Human platelet aggregation-inhibiting action). In kind it is cell-based. The protocol:
(1) Test for Assaying Human Platelet Aggregation-Inhibiting Activity
Blood was withdrawn from healthy human volunteers (adult males), in the presence of a 1/10th volume of sodium citrate, and centrifuged to obtain supernatant platelet-enriched plasma (PRP). The platelet count in PRP was determined with an automatic blood cell counter (MEK-6258; manufactured by NIHON KOHDEN CORPORATION). Then, the platelet count in PRP was adjusted to 3×10^8/ml with platelet-poor plasma. ADP as a platelet aggregation-inducing agent was a product of MCMEDICAL, Inc. Platelet aggregation was measured using an aggregometer (MCM Hematracer 212; MCMEDICAL, Inc.). Specifically, 80 μl of PRP and 10 μl of a solution of an active ingredient or compound of the invention or a solvent (10% DMSO) were incubated together at 37° C. for one minute, to which 10 μl of ADP (50 μM) was added to induce platelet aggregation. Then, the change of the transmitting light was recorded over 5 minutes. Using the area-under-the curve of platelet aggregation as an indicator, the inhibition ratio was calculated.

The target of another assay is T1, human P2Y12 (Homo sapiens, UniProt Q9H244).
T1 construct: expressed in transfected cells; membrane fraction
T1 sequence (Q9H244 whole entry): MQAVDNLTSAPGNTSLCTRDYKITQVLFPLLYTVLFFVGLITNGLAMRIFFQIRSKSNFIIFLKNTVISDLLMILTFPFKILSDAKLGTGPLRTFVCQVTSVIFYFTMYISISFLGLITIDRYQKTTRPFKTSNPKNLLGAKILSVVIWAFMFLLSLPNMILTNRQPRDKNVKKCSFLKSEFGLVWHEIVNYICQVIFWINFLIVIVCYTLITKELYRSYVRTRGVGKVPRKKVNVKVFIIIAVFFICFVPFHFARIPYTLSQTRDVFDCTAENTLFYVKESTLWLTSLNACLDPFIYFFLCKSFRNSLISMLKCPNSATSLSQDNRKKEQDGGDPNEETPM
Description: Substitution test of the binding between human P2Y12 and 2-methylthio-ADP (2-MeS-ADP). The settings on record: compound at 30 nM final concentration; [3H]-2-MeS-ADP; membrane fraction of C6-15 cells expressing human P2Y12. The method, then:
(2) Substitution Test of the Binding Between Human P2Y12 and 2-methylthio-ADP (2-MeS-ADP)
After C6-15 cells were inoculated on a DMEM culture medium to 1×10^6 cells in a 10-cm petri dish for culturing for one day, where 8 μg of a plasmid pEF-BOS-dhfr-human P2Y12 and 0.8 μg of pEF-BOS-neo (Nucleic Acid Res., 18, 5322, 1990) were genetically introduced with a transfection reagent (LipofectAMINE 2000; manufactured by GIBCO BRL).
24 hours after the gene introduction procedure described above, the cells with the gene introduced therein were recovered and suspended in a DMEM culture medium containing 0.6 mg/ml G418 (manufactured by GIBCO BRL), to prepare serial dilutions, which were inoculated on a 10-cm petri dish. Colonies appearing 2 weeks later were individually obtained and defined as C6-15 cell expressing the protein P2Y12, for use in the following experiment (WO 02/36631, Mol. Pharmacol., 60, 432, 2001).
The C6-15 cell expressing the protein P2Y12 was cultured and recovered. […]
1.5 μl of an active ingredient or compound of the invention and 50 μl of 0.75 nM [^3H]-2-MeS-ADP (80 Ci/mmol; manufactured by Amersham Pharmacia Biotech) were added to 100 μl of the P2Y12 protein-expressing C6-15 cell membrane fraction (100 μg/ml) thus prepared, for incubation in 50 mM Tris-HCl, pH 7.4 containing 100 mM NaCl and 50 mM MgCl2, at ambient temperature for one hour. […] Adding a microscintillator onto the glass filter, the radioactivity was assayed with a liquid scintillation counter. At the test, additionally, the radioactivity levels of such cell cultures with no addition of the compound and with addition of 1.5 μl of 100 μM 2-MeS-ADP were assayed as total binding and non-specific binding, respectively. Defining the total binding and the non-specific binding at inhibition ratios of 0% and 100%, respectively, the inhibition ratio (%) of an active ingredient or compound in accordance with the invention was calculated.

For orientation: inhibition means how much of the control response was suppressed. For the compound `CC1(C)OCC(n2cc(C(=O)NCCP(=O)(O)O)c(=O)c3cc(F)c(NC4CCCCC4)cc32)CO1` [Example 18, [2-({[7-(cyclohexylamino)-1-(2,2-dimethyl-1,3-dioxan-5-yl)-6-fluoro-4-oxo-1,4-dihydroquinolin-3-yl]carbonyl}amino)ethyl]phosphonic acid], the inhibition at 10 µM in assay [1] was determined as 92%. Also, the inhibition at 0.03 µM at human P2Y12 came to 96%.

`CCOP(=O)(O)CCNC(=O)c1cn(C(CO)CO)c2cc(NC3CCCCC3)c(F)cc2c1=O` [Example 22, ethyl{2-[({7-(cyclohexylamino)-6-fluoro-4-oxo-1-[2-hydroxy-1-(hydroxymethyl)ethyl]-4-oxo-1,4-dihydroquinolin-3-yl}carbonyl)amino]ethyl}phosphonic acid]: the “% inhibition (Inhibition activity of the binding between P2Y12 and 2-MeS-ADP)” value on human P2Y12 was 75%.

`CCC(CC)n1cc(C(=O)NC(C)(C)C(=O)O)c(=O)c2cc(F)c(NC3CCCCC3)cc21` [Example 28, 2-({[7-(cyclohexylamino)-1-(1-ethylpropyl)-6-fluoro-4-oxo-1,4-dihydroquinolin-3-yl]carbonyl}amino)-2-methylpropionic acid] displayed an inhibition at 0.03 µM at human P2Y12 of 63%.
